Results as given in patent US11274332B2, “Methods of administering 3,4-diaminopyridine” (SERB SA, priority 2011, dated 2022).

Test: Example 18: safety and tolerability in slow and fast acetylators
Type: in vivo, human
Text: The primary objective of the study was to assess the safety and tolerability of 3,4-DAP phosphate after single and multiple doses. The secondary objectives of the study were • Part 1 only: To determine the dose-related PK profile of amifampridine and of 3-N-acetyl amifampridine after single, escalating doses of 3,4-DAP phosphate • Part 2 only: To assess the steady-state plasma PK and accumulation of amifampridine and of 3-N-acetyl amifampridine over multiple days of dosing with 3,4-DAP phosphate An exploratory objective was to examine the overall activity of the N-acetyl transferase enzymes on the metabolism of amifampridine by assessing the PK of amifampridine and 3-N-acetyl amifampridine with phenotypic acetylation activity and genotyping determination of NAT2 gene polymorphisms. Study Design and Plan
Part 1 was a dose-proportionality study in 12 healthy subjects each receiving 4 ascending single oral doses of 3,4-DAP phosphate in a sequential manner (5 mg, 10 mg, 20 mg, and 30 mg). For all 12 subjects, the first 3 doses of oral 3,4-DAP phosphate (5-20 mg) were administered on 3 consecutive days (Days 1-3). Two fast and two slow acetylators (as defined by a caffeine challenge test in Example 15a) were selected as the first 4 enrolled subjects (sentinel subjects). For the 2 fast acetylators the 30 mg dose was administered on Day 4. […] Safety and tolerability data collected for all 4 subjects were reviewed and the safety and tolerability results of the 30 mg dose for these 4 sentinel subjects were acceptable. The 30 mg dose was given to the remaining 8 non-sentinel subjects on Day 7. Sentinel and non-sentinel subjects were released from the clinic on Day 5, Day 6, and Day 8 respectively, with all subjects returning for follow-tip assessments 2-4 days following their last dose.
Part 2, Group 1: Four sentinel subjects were selected after determining their acetylator status. Two were fast acetylators and two were slow acetylators. All four were dosed on Day 1 with 4 oral doses of 20 mg of 34-DAP phosphate (given at 4-hour dosing intervals). On Days […] and 2, safety and tolerability data was collected. Subjects left the clinic on Day 2. The safety and tolerability data collected for these 4 sentinel subjects were reviewed. The safety and tolerability results of Days 1 and 2 for these subjects were acceptable and thus Part 2 Group 2 was commenced. Minimally acceptable safety was defined as the absence of clinical seizure activity. Subjects in Group 1 returned to the clinic for their follow-up assessments 2-4 days following their last dose.
Each subject was given a final morning dose of 20 mg 3,4-DAP phosphate on Day 4. Subjects in Group 2 returned to the clinic for their follow-up assessments 2-4 days following their last dose.
Safety assessments: During the assessment period, the following safety measures were evaluated: vital signs, adverse events (AEs), 12-lead ECG, EEG and clinical laboratory tests.
Safety: Safety was assessed by the incidence of AEs, as well as changes in vital signs, 12-lead ECG, EEG, and clinical laboratory evaluations.
Safety: All subjects who received any amount of study drug in either Part 1 or Part 2 of this study and had post-dose safety information were included in the safety analyses. Safety was evaluated separately for Part 1 and Part 2 and was summarized by dose levels where appropriate. All verbatim AE terms were coded using Medical Dictionary for Regulatory Activities (MedDRA) terminology. Only treatment-emergent AEs (i.e., AEs with a start date on or after the first dose of study drug) were summarized. The incidence of AEs and SAEs were summarized for each study part by dose level, system, organ, class, preferred term, relationship to study drug, and severity. No deaths during the study, no discontinuations of study drug, and no withdrawals from the study and study drug due to an AE were observed.

## Nc1ccncc1N.O=P(O)(O)O [amifampridine phosphate, 3,4-diaminopyridine phosphate]
Part 1, 30 mg dose, sentinel subjects
  seizures: No seizures were seen
Part 1, single doses 5-30 mg
  phenotype in which drug-related adverse events were observed: observed in slow acetylators only
Part 2, fast acetylators (7)
  drug-related adverse events: % of subjects: 43%
  drug-related adverse events: events: six
  drug-related adverse events: subjects: 3
Part 2, slow acetylators (7)
  drug-related adverse events: % of subjects: 86%
  drug-related adverse events: events: Forty-five
  drug-related adverse events: subjects: 6
Part 2 Group 1, 20 mg x 4 on Day 1
  seizures: No seizures occurred
Parts 1 and 2
  serious adverse events: no serious adverse events
  severity of treatment-emergent adverse events: mild and transient
